# Source: patent US7572459B2, “Anionic or cationic dendrimer antimicrobial or antiparasitic compositions” (Starpharma Pty Ltd., priority 1998, dated 2009)
# Assay type: cell-based
# Source text: • II The following assay results were obtained in an in vitro assay to test for inhibition of Trypanosoma (T) and Plasmodium (P) species.
row,Substance,Cytotoxicity MIC [µg/mL]
1,BHAlys31lys32(NHCSNHPhOP[O] [ONa]2)64 [BRI6181],>100
2,PAMAM 4.0 EDA(NHCSNH SaccharinNa)32 [BRI6157],>100
3,"PAMAM 4.0 EDA(NHCSNH-3,5 Ph [COOH]2)32 [BRI6195]",>100
